According to article PMC7998563 (Viruses, 2021):
pIC50: −log10 of the molar value.

Biological target: T1, HCMV core nuclear egress complex (core NEC), pUL50-pUL53 (Human herpesvirus 5 strain AD169, UniProt P16791+P16794)
T1 construct: gene NEC2; pUL50 His-tagged, pUL53 coated on plate; heterodimer
Assay: ELISA-type pUL50-pUL53 interaction inhibition assay, anti-His-HRP detection
Assay type: binding

T1 sequence (P16791 1-181): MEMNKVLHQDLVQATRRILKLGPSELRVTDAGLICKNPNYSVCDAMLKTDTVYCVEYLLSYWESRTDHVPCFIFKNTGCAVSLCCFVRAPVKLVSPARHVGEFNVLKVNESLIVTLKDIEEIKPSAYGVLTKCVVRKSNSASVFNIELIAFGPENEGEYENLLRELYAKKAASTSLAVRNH
T1 sequence (P16794 50-292): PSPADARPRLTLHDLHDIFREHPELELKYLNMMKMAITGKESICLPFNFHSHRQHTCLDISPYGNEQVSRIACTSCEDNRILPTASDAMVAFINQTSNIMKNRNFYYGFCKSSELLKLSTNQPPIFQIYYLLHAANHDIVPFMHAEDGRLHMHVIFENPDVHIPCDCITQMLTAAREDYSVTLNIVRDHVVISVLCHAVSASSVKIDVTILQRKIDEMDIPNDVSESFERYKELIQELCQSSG

Compound `O=C(O)c1ccccc1-c1c2cc(Br)c(=O)[c]([Hg+])c-2oc2cc(O)c(Br)cc12` [P10G08, merbromin] has a pIC50 of 7.42.
